From the supplement of paper PMC10307832

Columns and labels:
Assay in all cases: relative viability (nuclei count vs DMSO), 5 days (fraction); higher = more cells survive
[1] = compound: CC1=NC=CC(=C1)C2=CC=C(C=C2)CC(=O)NC3=CC=C(C=C3)C4=CN=CC=C4 [Wnt-C59] + Nc1ncn([C@H]2C[C@H](O)[C@@H](CO)O2)c(=O)n1 [Decitabine] (partner 2 µM)
In short: (§1)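 Each reported value is a median over duplicate plates. It expresses relative viability: treated-well nuclei count divided by vehicle-well nuclei count. Lung cancer cell lines in 1536-well plates were dosed by pin tool a day after seeding, alone with one drug or with a fixed anchor-drug dose plus five library-drug doses (not always all listed) in √10 steps, and nuclei were counted after 5 days.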

[2] = compound: CS(=O)(=O)CCNCc1ccc(-c2ccc3ncnc(Nc4ccc(OCc5cccc(F)c5)c(Cl)c4)c3c2)o1 [Lapatinib] + C[C@]1(O)C[C@@H](c2nc(-c3ccc4ccc(-c5ccccc5)nc4c3)c3c(N)nccn32)C1 [Linsitinib] (partner 1 µM)
In short: as §1

[3] = compound: CS(=O)(=O)CCNCc1ccc(-c2ccc3ncnc(Nc4ccc(OCc5cccc(F)c5)c(Cl)c4)c3c2)o1 [Lapatinib] + CC1(C)CCC(c2ccc(Cl)cc2)=C(CN2CCN(c3ccc(C(=O)NS(=O)(=O)c4ccc(N[C@H](CCN5CCOCC5)CSc5ccccc5)c(S(=O)(=O)C(F)(F)F)c4)cc3)CC2)C1 [Navitoclax] (partner 0.5 µM)
In short: as §1

[4] = compound: CS(=O)(=O)CCNCc1ccc(-c2ccc3ncnc(Nc4ccc(OCc5cccc(F)c5)c(Cl)c4)c3c2)o1 [Lapatinib] + CC(=O)Nc1cccc(-n2c(=O)n(C3CC3)c(=O)c3c(Nc4ccc(I)cc4F)n(C)c(=O)c(C)c32)c1 [Trametinib] (partner 0.02 µM)
In short: as §1

Cell Line	relative viability ([1]; first compound 0.001 µM)	relative viability ([1]; first compound 0.01 µM)	relative viability ([1]; first compound 0.03162 µM)	relative viability ([1]; first compound 0.1 µM)	relative viability ([2]; first compound 0.2 µM)	relative viability ([2]; first compound 0.6325 µM)	relative viability ([2]; first compound 2 µM)	relative viability ([3]; first compound 0.2 µM)	relative viability ([3]; first compound 0.6325 µM)	relative viability ([3]; first compound 2 µM)	relative viability ([4]; first compound 0.2 µM)	relative viability ([4]; first compound 0.6325 µM)	relative viability ([4]; first compound 2 µM)	relative viability ([2]; first compound 0.02 µM)	relative viability ([2]; first compound 0.06325 µM)	relative viability ([3]; first compound 0.02 µM)	relative viability ([3]; first compound 0.06325 µM)	relative viability ([4]; first compound 0.02 µM)	relative viability ([4]; first compound 0.06325 µM)
NCI-H23	0.292	0.29	0.35	0.325	0.508	0.588	0.462	0.836	0.777	0.615	0.368	0.467	0.398	–	–	–	–	–	–
LU99A	0.943	0.937	0.897	0.878	0.581	0.565	0.561	0.805	0.886	0.725	0.448	0.511	0.536	0.534	0.511	0.829	0.63	0.532	0.453
NCI-H1793	0.458	0.461	0.615	0.521	–	0.605	0.515	–	0.329	0.292	0.469	0.406	0.394	–	–	–	–	–	0.416
NCI-H2085	0.623	0.571	0.494	0.601	0.811	0.813	0.62	0.987	1.01	0.805	0.511	0.559	0.452	0.919	0.89	1.06	0.925	0.404	0.56
NCI-H2126	0.654	0.576	0.567	0.575	0.685	0.645	0.593	0.764	0.806	0.739	0.467	0.533	0.402	–	0.658	–	0.799	0.536	0.417
NCI-H2347	0.629	0.628	0.643	0.602	1.01	0.929	0.926	0.826	0.731	0.769	0.278	0.302	0.281	0.963	0.97	0.548	0.807	0.298	0.236
NCI-H1437	0.584	0.562	0.559	0.614	1.05	0.864	0.875	1.11	1.03	1	0.498	0.458	0.303	0.898	0.968	1.09	1.08	0.475	0.492
LCLC-97TM1	0.262	0.266	0.227	0.238	0.186	0.198	0.187	0.355	0.327	0.33	0.205	0.181	0.137	–	–	–	–	–	0.131
RERF-LC-KJ	0.711	0.727	0.742	0.735	0.782	0.748	0.697	0.755	0.888	0.592	0.758	0.792	0.642	0.841	0.806	0.933	0.894	0.854	0.903
HCC-827	0.399	0.331	0.385	0.334	0.928	1.05	0.936	1.08	0.974	0.981	0.536	0.517	0.408	0.944	0.986	1	0.944	0.479	0.487
SK-LU-1	0.657	0.675	0.694	0.657	1.19	1.01	1.24	0.747	0.876	1.29	0.439	0.557	0.507	–	0.783	–	0.831	0.377	0.43
NCI-H1944	0.501	0.459	0.51	0.43	0.959	0.767	0.656	0.885	0.864	0.789	0.388	0.322	0.288	–	–	–	–	0.41	0.35
COR-L 105	0.613	0.618	0.663	0.586	0.954	0.703	0.272	0.77	0.574	0.302	0.402	0.363	0.393	0.796	0.772	0.701	0.744	0.433	0.419
HARA	0.604	0.455	0.543	0.587	0.808	0.755	0.243	1.15	1.08	0.938	0.331	0.36	0.304	0.782	0.686	1.13	1.18	0.476	0.316
NCI-H460	0.503	0.488	0.594	0.465	0.843	0.573	0.674	1.08	1.11	1.1	0.282	0.171	0.0626	0.736	0.776	0.966	1.08	0.0377	0.0952
SW 1573	0.449	0.453	0.583	0.537	0.76	0.784	0.794	1.16	0.92	0.882	0.527	0.606	0.515	0.843	0.82	0.902	0.974	–	0.577
HCC-366	0.317	0.427	0.342	0.387	0.702	0.746	0.472	1.08	1.03	0.914	0.253	0.371	0.2	–	0.404	–	1.02	–	0.293
NCI-H520	0.48	0.532	0.537	0.504	1.04	0.992	1.16	1.08	1.25	0.972	0.642	0.845	0.557	0.9	0.799	0.951	1.06	0.692	0.62

Cell Line	relative viability ([1]; first compound 0.001 µM)	relative viability ([1]; first compound 0.01 µM)	relative viability ([1]; first compound 0.03162 µM)	relative viability ([1]; first compound 0.1 µM)	relative viability ([2]; first compound 0.2 µM)	relative viability ([2]; first compound 0.6325 µM)	relative viability ([2]; first compound 2 µM)	relative viability ([3]; first compound 0.2 µM)	relative viability ([3]; first compound 0.6325 µM)	relative viability ([3]; first compound 2 µM)	relative viability ([4]; first compound 0.2 µM)	relative viability ([4]; first compound 0.6325 µM)	relative viability ([4]; first compound 2 µM)	relative viability ([2]; first compound 0.02 µM)	relative viability ([2]; first compound 0.06325 µM)	relative viability ([3]; first compound 0.02 µM)	relative viability ([3]; first compound 0.06325 µM)	relative viability ([4]; first compound 0.02 µM)	relative viability ([4]; first compound 0.06325 µM)
HCC-44	1.01	0.963	0.95	0.939	0.628	0.627	0.493	0.995	0.949	0.768	1.16	1.04	0.807	0.709	0.648	0.874	0.89	1.03	1.05
NCI-H2023	0.227	0.244	0.251	0.221	0.474	0.512	0.366	0.894	1	0.77	0.429	0.433	0.328	0.594	0.519	0.95	0.885	–	0.397
LOU-NH91	0.873	0.838	0.83	0.822	0.753	0.637	0.464	0.502	0.541	0.324	0.726	0.709	0.665	0.861	0.761	0.555	0.558	0.787	0.684
NCI-H727	0.91	0.902	0.901	0.997	0.278	0.256	0.236	0.401	0.4	0.32	0.436	0.382	0.363	0.259	0.207	0.388	0.341	0.365	–
LK-2	0.319	0.329	0.319	0.323	0.377	0.66	0.575	0.84	0.88	0.905	0.782	0.663	0.832	0.704	0.487	0.908	–	0.858	–
NCI-H322M	0.729	0.655	0.666	0.63	0.803	0.767	0.592	1.09	1.16	1.09	0.492	0.508	0.377	0.931	0.839	1.25	1.07	0.493	0.435
NCI-H596	0.996	0.918	1.07	1.42	1.09	1.19	0.839	0.922	0.97	0.706	0.777	0.854	0.617	1.11	1.02	0.978	0.95	–	0.745
PC-3 [JPC-3]	0.853	0.847	0.849	0.841	0.993	0.994	0.873	0.779	0.885	0.689	–	0.721	0.412	–	1.01	–	0.797	–	0.675
NCI-H1355	0.361	0.354	0.349	0.337	0.782	0.792	0.526	0.824	0.906	0.498	0.37	0.387	0.261	–	0.745	–	0.861	0.406	0.349
COR-L23	0.489	0.47	0.493	0.525	0.986	0.945	0.875	1.09	0.887	0.854	0.68	0.651	0.551	0.955	0.87	0.943	0.938	0.408	0.555
201T	0.861	0.824	0.902	0.812	1	1.04	0.909	1.16	1.22	1.2	0.694	0.726	0.651	0.96	0.92	1.16	1.22	0.735	0.719
NCI-H1792	0.636	0.524	0.536	0.506	0.532	0.533	0.431	0.52	0.586	0.645	0.402	0.457	0.352	0.456	0.455	0.615	0.589	–	–
HCC-15	0.621	0.607	0.661	0.606	0.954	0.814	0.599	0.704	0.635	0.599	0.386	0.312	0.341	–	0.857	–	0.679	–	0.243
NCI-H2405	0.793	0.756	0.786	0.656	0.918	0.973	0.768	0.868	0.881	0.72	–	0.52	0.438	–	0.805	–	0.769	–	0.409
NCI-H838	0.459	0.509	0.453	0.402	1.03	1.04	0.874	1.16	1.17	1	0.575	0.517	0.483	1.08	0.913	1.13	1.06	0.609	0.436
EPLC-272H	0.443	0.369	0.472	0.364	1.11	0.959	1.01	0.869	0.991	0.961	0.281	0.246	0.293	–	0.988	–	1.13	–	0.25
NCI-H1915	0.261	0.261	0.262	0.251	1.08	1.02	1.1	0.752	0.79	0.81	0.3	0.292	0.304	–	1.09	–	0.822	–	0.29
EMC-BAC-2	0.932	0.914	0.89	0.89	0.698	0.623	0.563	1.09	1.02	0.968	–	0.83	0.789	0.755	0.732	1.05	0.984	–	0.526
